Results on 11 molecules are retold here after US6599933B2, “Tocotrienol derivative, process for producing the same and γ-CEHC delivering agent” (Kenko Corporation, priority 2000, dated 2003).

Broadly, the Km is the concentration of substrate that gives half-maximal velocity. One may read the Vmax as the rate approached at saturating substrate.

The nature of data set [1]: Water-solubility test. The settings on record: 0.250 mmol in 5 ml distilled water, stirred at 20° C. for 24 hours, HPLC.
The conditions of data set [2]: racemic γ-CEHC administered to SD rat intravenously; cited from earlier work.
Data set [3] in a line: Hydrolyzability test in rat plasma solution. The format is in vitro ADME. The settings on record: 37° C., production of tocotrienol, Michaelis-Menten model. The protocol: (§1) d-α-tocotrienol N,N-dimethylaminoacetate hydrochloride (Example 5:hereinafter, d-α-T3DMA), d-α-tocotrienol N-methylaminoacetate hydrochloride (Example 2:hereinafter, d-α-T3MA), d-γ-tocotrienol N,N-dimethylaminoacetate hydrochloride (Example 6:hereinafter, d-γ-T3DMA), d-γ-tocotrienol N-methylaminoacetate hydrochloride (Example 4:hereinafter, d-γ-T3MA), or d-γ-tocotrienolaminoacetate hydrochloride (Example 3:hereinafter, d-γ-T3AA) were added to a solution of SD rat liver microsome and rat plasma in an isotonic phosphate buffer, and d-α-tocotrienol and d-γ-tocotrienol produced in the reaction solution at 37° C. with time were measured by high performance liquid chromatography (HPLC).
(§2) As Comparative Example, a hydrolysis test was performed on d-α-tocotrienolsuccinic acid ester (hereinafter, d-α-T3S) and d-γ-tocotrienolsuccinic acid ester (hereinafter, d-γ-T3S) similarly.
(§3) HPLC conditions: Column was CAPCELL PAK UG120, a mobile phase was methanol-acetonitrile (5:5 v/v), a rate was 0.7 ml/min, and detection was carried out by absorbance of 283 nm and fluorescent intensity (excitation 298 nm, fluorescent 325 nm).
(§4) Dynamic parameters of production of d-α-tocotrienol and d-γ-tocotrienol in a solution of rat liver microsome and rat plasma according to Micaelis-Menten model are shown in Tables 4 and 5.

Data set [4] in a line: Hydrolyzability test in rat liver microsome solution. The format is in vitro ADME. How it is done:
as §1, §2, §3, §4
On the technique in general: Microsomes from liver hold many membrane-bound enzymes, among them those of drug oxidation.

Data set [5] is described as follows: Test Examples 2 and 3: S-γ-CEHC kinetics in plasma after intravenous administration to rat. Format: in vivo, SD rat. The protocol:
A SD male rat, 7 weeks old, was used. A solution of γ-T3DMA to be administered was prepared into a d-γ-tocotrienol equivalent 25 mg/ml aqueous solution. The solution was administered intravenously into left femoram vein under slight ether anesthesia, blood was taken from external jugular vein with an injector for tuberculin treated with heparin with time, and plasma was taken after centrifugation. Plasma was stored at −80° C. till HPLC measurement. A γ-CEHC level in plasma was measured by the HPLC method which can fractionally quantitate optical isomers S-γ-CEHC and R-γ-CEHC (Hattori A., Fukushima T., Imai K., Anal. Biochem., 281, 209-215 (2000)). […] R-γ-CEHC was not detected in plasma after administration and only S-γ-CEHC was detected therein. […] Here, a S-γ-CEHC level after administration of racemic γ-CEHC is a value at racemic γ-CEHC 1 mg/kg. […] S-γ-CEHC in plasma was rapidly elevated after administration of γ-T3DMA and reached Cmax 1 hour after administration. […] Mean Retention Time (MRT) of a γ-T3DMA administered group is 6.64 hr and is an about 7-fold value as compared with MRT 1.00 hr of a racemic γ-CEHC administered group. From the foregoing, it can be understood that γ-T3DMA can enhance the S-γ-CEHC level in the living body and, further, can maintain the S-γ-CEHC level continuously for longer period of time.
The pharmacokinetics parameter represents an average of four animals and standard deviation. A dose is γ-T3 equivalent 25 mg/kg. F(%) was obtained by the following equation: […]
a Obtained by the Following Equation [formula]
wherein AUCS-γ-CEHC,γ-T3DM^Plasma and AUCS-γ-CEHC,racemicγ-CEHC^Plasma means AUC of S-γ-CEHC after administration of γ-T3DMA and racemic γ-CEHC, respectively, and Dγ-T3DMA and Dracemic γ-CEHC means a dose of γ-T3DMA and racemic γ-CEHC, respectively.
b Obtained by the Following Equation [formula]
wherein AUCS-γ-CEHC,γ-TDMA^Plasma means AUC of S-γ-CEHC after administration of γ-TDMA, and Dγ-TDMA means a dose of γ-TDMA.
γ-CEHC kinetics in plasma was studied by administering an aqueous γ-TDMA solution into rat's vein according to the same test procedure as those of Test Example 2. The γ-CEHC in plasma was all S-γ-CEHC and R-γ-CEHC was not detected. […] A level in plasma was rapidly elevated after administration, reached Cmax after 1 hr, and a S-γ-CEHC level was elevated clearly. […] Thus, it was shown that a level of S-γ-CEHC in the living body is efficiently elevated. Mean Retention Time (MRT) of a γ-TDMA administered group was 8.19 hr and was about 8-fold value as compared to MRT 1.00 hr of a racemic γ-CEHC administered group.

Data set [6] can be described thus: Animal Test Example 1: kinetics in rat after intravenous administration (plasma, liver, heart, kidney). The settings on record: in vivo, 25 mg/kg. Set-up: species or system SD rat. How it is done: 1) SD male rats (weighing 260-285 g) were used while a diet was changed to crystal sugar from 16 hours before drug administration. d-α-T3DMA (Example 5), d-γ-T3DMA (Example 6), d-α-tocotrienol (hereinafter, d-α-T3), or d-γ-tocotrienol (hereinafter, d-γ-T3) was administered into left femoral vein under slight anesthesia. A solution of d-α-T3DMA or d-γ-T3DMA to be administered was used by dissolving it in distilled water containing 10% propylene glycol, and filtering with membrane filter (0.22 μm). A solution of d-α-T3 and d-γ-T3 to be administered was used by dissolving it using a nonionic surfactant HCO-60. Administration amounts were set to be tocotrienol equivalent 25 mg/kg, respectively. 0.25, 0.5, 1, 2, 4, 8 and 24 hours after administration, blood was taken under ether anesthesia, and liver, heart and kidney were taken. Plasma was rapidly separated and taken. A 1.15% potassium chloride solution was added at a 3-fold amount of each organ weight was added thereto, which was homogenated. 0.7 ml of ethanol was added to 0.2 ml of each sample, the mixture was stirred for 2 minutes, centrifuged, and the supernatant was analyzed by the aforementioned HPLC.

The mark [7] stands for this setting: liver microsome, 37° C., production of tocotrienol, Michaelis-Menten model.
[8] abbreviates: liver microsome, 37° C., production of tocotrienol, Michaelis-Menten model, read-out: Km.

For `CC(C)=CCC/C(C)=C/CC/C(C)=C/CC[C@]1(C)CCc2cc(O)c(C)c(C)c2O1` [d-γ-tocotrienol], the “solubility in distilled water” value in data set [1] is “below detection limit of HPLC”.
On to `Cc1c(O)cc2c(c1C)O[C@@](C)(CCC(=O)O)CC2` [R-γ-CEHC], for which the “biological half-life in plasma” value in data set [2] is “about 1 hour”.
Turning to `CNCC(=O)Oc1c(C)c(C)c2c(c1C)CC[C@@](C)(CC/C=C(\C)CC/C=C(\C)CCC=C(C)C)O2.Cl` [d-α-T3MA, d-α-tocotrienol N-methylaminoacetate hydrochloride], in data set [3], the Km was 1550 µM and the maximal velocity (Vmax) is 5.808e-07 M/min. Further, in data set [4], the Km was 109 µM and the Vmax/Km was 0.01111 min⁻¹. In data set [4] (setting [7]), the Vmax stood at 1.878e-06 M/min.
On the same counts, the results for `CC(C)=CCC/C(C)=C/CC/C(C)=C/CC[C@]1(C)CCc2cc(OC(=O)CCC(=O)O)c(C)c(C)c2O1` [d-γ-T3S, d-γ-tocotrienolsuccinic acid ester, reference compound] are 1050 µM, 1.945e-06 M/min, 22.1 µM, 0.03244 min⁻¹ and 7.161e-07 M/min.
`CC(C)=CCC/C(C)=C/CC/C(C)=C/CC[C@]1(C)CCc2cc(OC(=O)CN(C)C)c(C)c(C)c2O1.Cl` [d-γ-T3DMA, d-γ-tocotrienol N,N-dimethylaminoacetate hydrochloride]: the “R-γ-CEHC in plasma after administration” value in data set [5] (intravenous, HPLC separating optical isomers) is “not detected”. For the same molecule, the “MRT as fold of MRT of racemic γ-CEHC administered group” value in data set [5] (intravenous, S-γ-CEHC in plasma) is “about 7 fold”. Besides, the Km in data set [3] is 786 µM; in data set [4] (setting [8]) it was 5580 µM. For the same molecule, the Vmax in data set [3] was 7.592e-06 M/min; in data set [4] (setting [7]) it was 0.000323 M/min.
Turning to `Cc1c(O)cc2c(c1C)OC(C)(CCC(=O)O)CC2` (stereo not shown) [S-γ-CEHC], the “biological half-life in plasma” value in data set [2] is listed as at most 2 minutes.
Regarding `CC(C)=CCC/C(C)=C/CC/C(C)=C/CC[C@]1(C)CCc2c(C)c(OC(=O)CCC(=O)O)c(C)c(C)c2O1` [d-α-T3S, d-α-tocotrienolsuccinic acid ester, reference compound], in data set [3], the Michaelis constant (Km) amounted to 506 µM and the Vmax came to 4.946e-08 M/min. In data set [4], the Km was 30.3 µM and the Vmax/Km amounted to 0.001846 min⁻¹. In addition, in data set [4] (setting [7]), the Vmax was found to be 5.588e-08 M/min.
As for `CNCC(=O)Oc1cc2c(c(C)c1C)O[C@](C)(CC/C=C(\C)CC/C=C(\C)CCC=C(C)C)CC2.Cl` [d-γ-T3MA, d-γ-tocotrienol N-methylaminoacetate hydrochloride], the figures for the Km in data set [3] and in data set [4] (setting [8]) were 12700 µM and 2100 µM, respectively. Moreover, the Vmax was 5.178e-05 M/min in data set [3] and 0.0001204 M/min in data set [4] (setting [7]).
`CC(C)=CCC/C(C)=C/CC/C(C)=C/CC[C@]1(C)CCc2c(C)c(OC(=O)CN(C)C)c(C)c(C)c2O1.Cl` [d-α-T3DMA, d-α-tocotrienol N,N-dimethylaminoacetate hydrochloride]: the results for the Km in data set [3] and in data set [4] were 793 µM and 5970 µM, respectively. Also, the Vmax in data set [3] worked out at 9.187e-08 M/min; in data set [4] (setting [7]) it was 0.0001465 M/min. Further, in data set [6], the “bioavailability of d-α-T3 in liver” value is given as 130%. Also, in data set [4], the Vmax/Km turned out to be 0.02455 min⁻¹.
As to `CC(C)=CCC/C(C)=C/CC/C(C)=C/CC[C@]1(C)CCc2cc(OC(=O)CN)c(C)c(C)c2O1.Cl` [d-γ-T3AA, d-γ-tocotrienol aminoacetate hydrochloride], the Michaelis constant (Km) in data set [3] is 5510 µM; in data set [4] (setting [8]) it was 1560 µM. For the same molecule, the Vmax in data set [3] stood at 3.594e-05 M/min; in data set [4] (setting [7]), 7.716e-05 M/min.
Take `Cc1c(OC(=O)CN(C)C)cc2c(c1C)O[C@](C)(CCC[C@H](C)CCC[C@H](C)CCCC(C)C)CC2.Cl` [γ-TDMA, d-γ-tocopheryl N,N-dimethylaminoacetate hydrochloride]: in data set [5] (in vivo, iv), the “MRT as fold of MRT of racemic γ-CEHC administered group” value is given as “about 8 fold” and the “R-γ-CEHC in plasma after administration” value was “not detected”.
